Experimental data: publication PMC12147183, “Lacritin cleavage-potentiated targeting of iron - respiratory reciprocity promotes bacterial death” (The Journal of Biological Chemistry, 2025)
Peptide text beside a SMILES is read from it.

What was measured:
[1] = Surface plasmon resonance on chip-supported Gram-negative model membrane
YaiW = experiment: Affinity pulldown/tandem mass spectrometry of PA14 lysate; format: binding, Pseudomonas aeruginosa PA14; conditions: 500 mM KCl eluate, n-octyl-β-D-glucopyranoside lysate, 4 °C
Description: (§1) For generation of N-104 and negative control C-95 affinity columns, 2 mg of Cys(N)-N-104 or Cys(N)-C-95 in 2 ml of 50 mM Tris (pH 8.5), 5 mM EDTA coupling buffer were incubated with an equal volume of suspended SulfoLink Coupling Resin with mixing for 3 h at room temperature. Columns were subsequently washed with 3 ml of coupling buffer followed by 2 ml of freshly prepared 50 mM L-cysteine for 2 h at room temperature for quenching and then washed with 10 ml of 1 M NaCl prior to use or storage in 0.05% sodium azide at 4 °C. Coupling efficiency was determined using fluorescence from N-104's penultimate C-terminal tryptophan as 0.65 ± 0.04 μmole per ml of resin.
(§2) Screening for PA14 proteins with N-104 affinity columns was initiated from pelleted 2.5 L overnight cultures that were washed with ice-cold 10 mM Na2HPO4, 1.8 mM KH2PO4, 2.7 mM KCl, 137 mM NaCl (pH 7.2) and lysed by sonication in 25 ml of 50 mM Tris (pH 7.5), 1 mM MgCl2, 200 mM n-octyl-β-D-glucopyranoside with protease inhibitors. Sonication involved five cycles of 15 s with 45 s rest on ice followed by vortexing on ice for 30 min before being rocked end-over-end overnight at 4 °C. After centrifugation, the supernatant was subjected to end-over-end mixing with a 3-ml pre-column of Pierce Agarose followed by equal division by protein concentration for end-over-end incubation with 1 ml N-104 or C-95 columns at 4 °C. […]

OprF = molecular target: T1, OprF (Pseudomonas aeruginosa, UniProt P13794); experiment: as above; format: binding, Pseudomonas aeruginosa PA14; conditions: 500 mM KCl eluate, n-octyl-β-D-glucopyranoside lysate, 4 °C
T1 construct: endogenous in cells; host or cells: P. aeruginosa PA14 overnight culture, n-octyl-β-D-glucopyranoside lysate
T1 sequence (P13794 25-350): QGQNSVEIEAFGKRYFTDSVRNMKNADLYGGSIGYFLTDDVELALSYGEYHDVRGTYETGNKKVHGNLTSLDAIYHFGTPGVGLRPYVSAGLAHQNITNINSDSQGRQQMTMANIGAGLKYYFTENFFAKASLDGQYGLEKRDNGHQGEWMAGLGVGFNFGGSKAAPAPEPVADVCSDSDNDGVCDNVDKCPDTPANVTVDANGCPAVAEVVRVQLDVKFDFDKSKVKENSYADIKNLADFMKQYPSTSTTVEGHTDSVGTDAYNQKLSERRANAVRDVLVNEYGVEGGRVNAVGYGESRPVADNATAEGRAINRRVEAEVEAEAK
Description: as §1, §2

SMILES	membrane lysis or disruption concluded from SPR ([1]; 2-25 μM N-104, PC:PG:PE and PC:PG membranes)	SPR response after buffer wash versus baseline ([1]; highest N-104 concentration (25 μM), flow 30 μl/min, 600 s, n = 4)	affinity of outer membrane YaiW for immobilized peptide (YaiW)	binding of outer membrane OprF to immobilized peptide (OprF)
CC(=O)N[C@@H](C)C(=O)N[C@@H](CCC(N)=O)C(=O)N[C@@H](CCCCN)C(=O)N[C@@H](CC(C)C)C(=O)N[C@@H](CC(C)C)C(=O)N[C@@H](CCCCN)C(=O)N[C@@H](CCCCN)C(=O)N[C@@H](Cc1ccccc1)C(=O)N[C@@H](CO)C(=O)N[C@@H](CC(C)C)C(=O)N[C@@H](CC(C)C)C(=O)N[C@@H](CCCCN)C(=O)N1CCC[C@H]1C(=O)N[C@@H](Cc1c[nH]c2ccccc12)C(=O)N[C@@H](C)C(=O)O [N-104] (Ac-AQKLLKKFSLLKPWA-OH)	not membrane lytic nor substantially membrane disruptive	remained slightly elevated over baseline	selective affinity	–
C[C@H](NC(=O)CNC(=O)[C@@H](NC(=O)[C@H](CO)NC(=O)[C@H](CC(=O)O)NC(=O)[C@H](CO)NC(=O)[C@H](CO)NC(=O)[C@H](C)NC(=O)[C@H](CC(=O)O)NC(=O)[C@@H](N)CCC(=O)O)[C@@H](C)O)C(=O)N[C@@H](CC(=O)O)C(=O)N1CCC[C@H]1C(=O)N[C@@H](C)C(=O)N[C@@H](CCC(N)=O)C(=O)N[C@@H](CCC(=O)O)C(=O)N[C@@H](C)C(=O)NCC(=O)N[C@H](C(=O)N[C@@H](CO)C(=O)N[C@@H](CCCCN)C(=O)N1CCC[C@H]1C(=O)N[C@@H](CC(N)=O)C(=O)N[C@@H](CCC(=O)O)C(=O)N[C@@H](CCC(=O)O)C(N)=O)[C@@H](C)O [C-95, reference compound] (H-EDASSDSTGADPAQEAGTSKPNEE-NH2)	–	–	–	binds OprF
